These are literature values, as cited in US8347551B2, “Method of applying pesticides” (priority 2004, dated 2013).

Read-outs that look alike come from different tables or passages of the source.

Data set [1] relates to pest. The settings on record: seed treatment; dose giving sufficient control of the pest; dutch registration code no. 11492.
For data set [2], the system named is pest. Conditions: seed treatment, dose giving sufficient control of the pest.
The test system of data set [3] is pest. The settings on record: seed treatment; dose giving sufficient control of the pest; dutch registration code no. 11455.
Data set [4] deals with pest. The settings on record: seed treatment; dose giving sufficient control of the pest; dutch registration code no. 8672.
The subject of data set [5] is pest. Conditions: seed treatment; dose giving sufficient control of the pest; dutch registration code no. 8928.

Turning to `CN(C)C(=S)SSC(=S)N(C)C` [thiram], the “Effective Dose” value in the data set on pest [1] was 1.6 g per kg radish seeds.
For the compound `CCOP(=S)(OCC)Oc1nc(Cl)c(Cl)cc1Cl` [chlorpyriphos], the “Effective Dose” value in the data set on pest [2] (dutch registration code no. 10968) is 0.096 g per 1000 brassica seeds.
As to `O=[N+]([O-])NC1=NCCN1Cc1ccc(Cl)nc1` [imidacloprid], the “Effective Dose” value in the data set with pest [3] is on record as 0.8 g per 1000 lettuce seeds.
As for `COC(=O)Nc1nc2ccccc2[nH]1` [carbendazim], in the data set with pest [4], the “Effective Dose” value is 1 g per kg onion seeds.
As to `COCC(=O)N(c1c(C)cccc1C)[C@H](C)C(=O)OC` [metalaxyl-m], the “Effective Dose” value with pest [2] (dutch registration code no. 12280) is given as 0.175 g per kg brassica seeds.
Consider `CC(C)NC(=O)N1CC(=O)N(c2cc(Cl)cc(Cl)c2)C1=O` [iprodione], for which, in the data set with pest [5], the “Effective Dose” value was 5 g per kg carrot seeds.
